Data from PubChem BioAssay (NCI).
Values joined by “and” are separate entries in the source; they are usually repeats but may differ in a detail not shown here. Equal values may be shown once.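 These data come from cells grown in 96-well plates and exposed to compound for 48 hours at five concentrations. GI50 = concentration required for 50% inhibition of growth. Definition used: TGI = concentration required for complete inhibition of growth.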 *1 amine or outer side, *2 acyl side, *3 side chain or, on linkers, in order; H or OH if unused. Where a SMILES comes first, the peptide text is derived from it. Bridges are numbered along the chain shown (N, C = ends). [ ]: non-standard residue; d: D form. The star is where a group is joined. ξ: configuration not given here. Phe(3,5-F2) = N[C@@H](Cc1cc(F)cc(F)c1)C(=O)O; ξThr(3S) = C[C@H](O[*:3])C(N[*:1])C(=O)[*:2]; Pro(4R-Me) = C[C@H]1CN[C@H](C(=O)O)C1; Pip = O=C(O)[C@@H]1CCCCN1; X1 = Cc1ccc(N*)c(F)c1; CO = O=C([*:1])[*:2]

The molecules below were run on MDA-MB-468 breast (assay: inhibition of tumour cell growth, NCI panel, 48 h).
For COc1ccc(-c2nc(-c3nc4cc(Cl)c(Cl)cc4[nH]3)c3ccccn23)cc1, the GI50 was 5.04 µM and the TGI was over 100 µM.
Work on CCCCCOC(=O)c1c(C)[nH]c(/C=C2\N=C(c3ccc[nH]3)C=C2OC)c1C yielded a GI50 of 0.0546 µM and a TGI of 1.32 µM.
For Cc1ccc(NC(=O)N[C@@H](Cc2cc(F)cc(F)c2)C(=O)NC2C(=O)N3CCC[C@H]3C(=O)N3CCCC[C@H]3C(=O)N[C@@H](C)C(=O)N3C[C@H](C)C[C@H]3C(=O)O[C@H]2C)c(F)c1 (stereo partly drawn) ({X1-CO}-[Phe(3,5-F2)][ξThr(3S)]P[Pip]A[Pro(4R-Me)]; ester 2-C), the GI50 was 0.174 µM and 0.0874 µM.
With O=C(Nc1ccccc1/C=C/c1n[nH]c2ccccc12)c1ccccc1 the GI50 was 6.35 µM and the TGI was 20.4 µM.
With Cc1cc(NC(=O)NCCCOc2ccc(N3C(N)=NC(N)=NC3(C)C)cc2Cl)ccc1S(=O)(=O)F the GI50 was 0.638 µM and the TGI was 19.7 µM.
COc1ccc(-c2nn3ncccc3c2-c2ccnc(Nc3ccc(F)c(F)c3)n2)cc1 gave a GI50 of 6 µM and a TGI of over 18.9 µM.
In the case of CCCCCCCCCCCC1=NC(C)(C)CN1C(C)C, the GI50 is reported as 1.66 µM and the TGI is reported as 3.8 µM.
In the case of CCCN1CCC(Oc2cc(Nc3nc(Nc4cccc(F)c4C(N)=O)c4cc[nH]c4n3)c(OC)cc2Cl)CC1, the GI50 is reported as 0.537 µM and the TGI is reported as 1.35 µM.
c1ccc2[nH]c(-c3ccc(Nc4nc(N5CCCC5)nc5[nH]ncc45)cc3)nc2c1 showed a GI50 of 0.277 µM and a TGI of 1.21 µM.
With CCCCCCCCCCCC(c1ccccc1)[N+](C)(C)C (configuration not stated) the GI50 was 0.257 µM and the TGI was 1.35 µM.
With CCn1c(-c2nonc2N)nc2cnc(Oc3cccc(NC(=O)c4ccc(OCCN5CCOCC5)cc4)c3)cc21 the GI50 was 1.13 µM and the TGI was 19.9 µM.
In the case of C=C(C)[C@@H]1CC[C@]2(C(=O)OC)CC[C@]3(C)[C@H](CC[C@@H]4[C@@](C)(CCc5nn[nH]n5)[C@H](C(=C)C)CC[C@]43C)[C@@H]12, the GI50 is reported as 13.8 µM and the TGI is reported as 36.4 µM.
Cc1[nH]nc2ncc(C#Cc3cncc(C(=O)Nc4ccc(CN5CCN(C)CC5)c(C(F)(F)F)c4)c3)cc12 showed a GI50 of 0.141 µM and a TGI of 0.911 µM.
For CC[C@@H]1C(=O)N(C)c2cnc(Nc3ccc(C(=O)NC4CCC(N5CCN(CC6CC6)CC5)CC4)cc3OC)nc2N1C(C)C (some centres not stated), the GI50 was 0.00331 µM and < 0.01 µM and the TGI was 0.121 µM.
With C=CCn1c(SCC(=O)Nc2ccc(C(=O)/C=C/c3cc(OC)c(OC)c(OC)c3)cc2)nnc1-c1cc(OC)c(OC)c(OC)c1 the GI50 was 2.45 µM and the TGI was 6.66 µM.
Work on CCN(Cc1ccccc1)c1ccc(/C=C2\COc3ccccc3C2=O)cc1 yielded a GI50 of 438 µM and a TGI of over 1000 µM.
Nc1nc(N)c2cc(S(=O)(=O)c3cccc(C(F)(F)F)c3)ccc2n1 was tested, and the GI50 was 2.34 µM and the TGI was over 100 µM.
Work on CN1CCN(c2cc(F)c(NC3=C(Cl)C(=O)c4ncccc4C3=O)c(F)c2)CC1 yielded a GI50 of 1.01 µM and a TGI of 2.61 µM.
For Cc1ccc(-c2nnc(SCc3ccc(O)c4ncccc34)o2)cc1, the GI50 was 1.88 µM and the TGI was over 100 µM.
For COc1cc(-c2csc(NC(=O)Nc3ccc(Cl)cc3)n2)cc(OC)c1OC, the GI50 was 2.96 µM and the TGI was 9.35 µM.
O=C(O)CN(CCN(CC(=O)O)CC(=O)O)CCN(CC(=O)O)CC(=O)O showed a GI50 of 4.03 µM and a TGI of 16.4 µM.
For C#C[C@]1(O)CC[C@H]2[C@@H]3CC=C4c5sc(Nc6cc(C)cc(C)c6)nc5CC[C@]4(C)[C@H]3CC[C@@]21C, the GI50 was 2.54 µM and the TGI was 8.69 µM.
COc1ccc(C2c3cc4c(cc3OC(N3CCOCC3)C2C)OCO4)cc1OC (configuration not stated) gave a GI50 of 7.56 µM and a TGI of over 100 µM.
N#CSc1c[nH]c2ccc(/C=C/C(=O)/C=C(O)/C=C/c3ccc4[nH]cc(SC#N)c4c3)cc12 was tested, and the GI50 was 2.06 µM and the TGI was 6.67 µM.
With Cc1ccc(/C=C/C(=O)c2ccc(F)cc2)s1 the GI50 was 2.97 µM and the TGI was 16.4 µM.
CC(C)Cn1cnc2c(N)nc3ccccc3c21 was tested, and the GI50 was 12.4 µM and the TGI was over 62.1 µM.
CN(C)CCN1C(=O)c2cccc3cc(N)cc(c23)C1=O gave a GI50 of 2.95 µM and a TGI of 11.9 µM.
For Cc1ccc(NC(=O)c2ccoc2)cc1-c1ccc(C(=O)NCC2CC2)cc1, the GI50 was 6.37 µM and the TGI was over 25 µM.
In the case of Clc1ccc2c(NC3CCC(NC4CCCCC4)CC3)ccnc2c1 (configuration not stated), the GI50 is reported as 1.68 µM and the TGI is reported as 8.1 µM.
For COCCn1c(Nc2ccc(C(=O)NO)cc2)nc2ccccc21, the GI50 was 3.43 µM and the TGI was 16 µM.
With CCOc1ccc2nc3cc(N)ccc3c(N)c2c1 the GI50 was 0.268 µM and 0.135 µM and the TGI was 0.972 µM and 0.493 µM.
Work on Clc1cccc(-c2cc(-c3ccc4c(c3)OCCO4)[nH]n2)c1 yielded a GI50 of 10.9 µM and a TGI of 57.8 µM.
For C=CC(=O)N1CCN([C@@H](CC2CC2)c2ccc([C@H](C)Nc3ncc4c(n3)N(CC)C(=O)OC4)cc2)CC1, the GI50 was 3.3 µM and the TGI was 13.8 µM.
Work on Clc1ccc2c(NCCCCNc3nc(N4CCOCC4)nc4ccccc34)ccnc2c1 yielded a GI50 of 2.82 µM and a TGI of 7.97 µM.
CN1CCN(c2ccc3nc(-c4[nH]ncc4Nc4ncnc5[nH]ccc45)[nH]c3c2)CC1 showed a GI50 of 0.197 µM and a TGI of 0.487 µM.
COc1cccc2c1C(=O)c1c(O)c3c(c(O)c1C2=O)C[C@@](O)(C(=O)CO)C[C@@H]3OC1CC(N2CCOCC2)C(O)C(C)O1 (some centres not stated) was tested, and the GI50 was 0.0369 µM and the TGI was 0.216 µM.
For CC(=O)Nc1ccc(CC[C@H]2CCC/C=C/[C@@H]3C[C@H](O)C[C@H]3[C@H](O)/C=C/C(=O)O2)cc1, the GI50 was 0.0213 µM and the TGI was 0.0503 µM.
CN1CCN(CCCOC(=O)c2c3c(n4ccccc24)C(=O)c2ncccc2C3=O)CC1 was tested, and the GI50 was 1.88 µM and the TGI was 20.6 µM.
CN1CCC2(CC1)C(=O)Nc1cc(NC(=O)c3ccc4c(c3)C[C@@H]3C(C)(C)[C@H](O)[C@H](F)C[C@@]3(C)O4)ccc12 showed a GI50 of 0.74 µM and a TGI of 11.7 µM.
